Measured values from PubChem BioAssay (NCI).
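Step 1: Grow cells in 96-well plates. Step 2: Expose to compound for 48 hours at 5 concentrations. Step 3: Interpolate endpoints linearly; if unreached, use highest concentration. TGI: total growth inhibition.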

What was measured:
Assay in all cases: inhibition of tumour cell growth, NCI panel, 48 h
SR leukemia = tested on: SR leukemia
EKVX NSCLC = tested on: EKVX NSCLC
A498 renal = tested on: A498 renal
UO-31 renal = tested on: UO-31 renal
OVCAR-8 ovarian = tested on: OVCAR-8 ovarian
HCT-15 colon = tested on: HCT-15 colon
HL-60(TB) leukemia = tested on: HL-60(TB) leukemia
RPMI-8226 leukemia = tested on: RPMI-8226 leukemia
NCI-H522 lung = tested on: NCI-H522 lung
HOP-92 NSCLC = tested on: HOP-92 NSCLC
OVCAR-3 ovarian = tested on: OVCAR-3 ovarian
IGROV1 ovarian = tested on: IGROV1 ovarian
T-47D breast = tested on: T-47D breast
U251 CNS = tested on: U251 CNS
SK-MEL-2 melanoma = tested on: SK-MEL-2 melanoma
OVCAR-4 ovarian = tested on: OVCAR-4 ovarian
ACHN renal = tested on: ACHN renal
HOP-62 NSCLC = tested on: HOP-62 NSCLC
SF-268 CNS = tested on: SF-268 CNS
A549 NSCLC = tested on: A549 NSCLC
UACC-62 melanoma = tested on: UACC-62 melanoma
OVCAR-5 ovarian = tested on: OVCAR-5 ovarian
MDA-MB-231 breast = tested on: MDA-MB-231 breast
BT-549 breast = tested on: BT-549 breast
NCI-H460 lung = tested on: NCI-H460 lung
K-562 leukemia = tested on: K-562 leukemia
NCI/ADR-RES ovarian = tested on: NCI/ADR-RES ovarian
NCI-H23 lung = tested on: NCI-H23 lung
MDA-N = tested on: MDA-N
DU-145 prostate = tested on: DU-145 prostate
MALME-3M melanoma = tested on: MALME-3M melanoma
UACC-257 melanoma = tested on: UACC-257 melanoma
SF-539 CNS = tested on: SF-539 CNS
RXF 393 renal = tested on: RXF 393 renal
PC-3 prostate = tested on: PC-3 prostate
M14 melanoma = tested on: M14 melanoma
MCF7 breast = tested on: MCF7 breast
SN12C renal = tested on: SN12C renal
TK-10 renal = tested on: TK-10 renal
786-0 renal = tested on: 786-0 renal
SW-620 colon = tested on: SW-620 colon
SK-MEL-28 melanoma = tested on: SK-MEL-28 melanoma
NCI-H226 lung = tested on: NCI-H226 lung
LOX IMVI melanoma = tested on: LOX IMVI melanoma
KM12 colon = tested on: KM12 colon
HT29 colon = tested on: HT29 colon
SK-MEL-5 melanoma = tested on: SK-MEL-5 melanoma
SNB-19 CNS = tested on: SNB-19 CNS
SNB-75 CNS = tested on: SNB-75 CNS
SF-295 CNS = tested on: SF-295 CNS
HS 578T breast = tested on: HS 578T breast
COLO 205 colon = tested on: COLO 205 colon
HCT-116 colon = tested on: HCT-116 colon
MOLT-4 leukemia = tested on: MOLT-4 leukemia
MDA-MB-435 = tested on: MDA-MB-435
CCRF-CEM leukemia = tested on: CCRF-CEM leukemia
HCC-2998 colon = tested on: HCC-2998 colon
SK-OV-3 ovarian = tested on: SK-OV-3 ovarian
CAKI-1 renal = tested on: CAKI-1 renal

For `CC1OC(NCCNCCNC2OC(C)C(O)C(O)C2O)C(O)C(O)C1O` (centres undefined), which TGI (SR leukemia) is on record?
Its TGI is over 100 µM.

And the TGI (EKVX NSCLC)?
Its TGI is over 100 µM.

What about the TGI (A498 renal) of the same molecule?
Its TGI is over 100 µM.

What about the TGI (UO-31 renal) of the same molecule?
Its TGI is over 100 µM.

What about the TGI (OVCAR-8 ovarian) of the same molecule?
Its TGI is over 100 µM.

And the TGI (HCT-15 colon)?
The TGI was over 100 µM.

And the TGI (HL-60(TB) leukemia)?
The TGI was over 100 µM.

And the TGI (RPMI-8226 leukemia)?
Its TGI is over 100 µM.

What about the TGI (NCI-H522 lung) of the same molecule?
The TGI was over 100 µM.

What about the TGI (HOP-92 NSCLC) of the same molecule?
Its TGI is over 100 µM.

And the TGI (OVCAR-3 ovarian)?
Its TGI is over 100 µM.

And the TGI (IGROV1 ovarian)?
Its TGI is over 100 µM.

And the TGI (T-47D breast)?
The TGI was over 100 µM.

And the TGI (U251 CNS)?
Its TGI is over 100 µM.

What about the TGI (SK-MEL-2 melanoma) of the same molecule?
Its TGI is over 100 µM.

What about the TGI (OVCAR-4 ovarian) of the same molecule?
Its TGI is over 100 µM.

What about the TGI (ACHN renal) of the same molecule?
The TGI was over 100 µM.

And the TGI (HOP-62 NSCLC)?
The TGI was over 100 µM.

What about the TGI (SF-268 CNS) of the same molecule?
The TGI was over 100 µM.

And the TGI (A549 NSCLC)?
The TGI was over 100 µM.

And the TGI (UACC-62 melanoma)?
Its TGI is over 100 µM.

And the TGI (OVCAR-5 ovarian)?
Its TGI is over 100 µM.

What about the TGI (MDA-MB-231 breast) of the same molecule?
Its TGI is over 100 µM.

What about the TGI (BT-549 breast) of the same molecule?
Its TGI is over 100 µM.

And the TGI (NCI-H460 lung)?
Its TGI is over 100 µM.

And the TGI (K-562 leukemia)?
The TGI was over 100 µM.

What about the TGI (NCI/ADR-RES ovarian) of the same molecule?
The TGI was over 100 µM.

And the TGI (NCI-H23 lung)?
Its TGI is over 100 µM.

And the TGI (MDA-N)?
The TGI was over 100 µM.

And the TGI (DU-145 prostate)?
Its TGI is over 100 µM.

What about the TGI (MALME-3M melanoma) of the same molecule?
Its TGI is over 100 µM.

And the TGI (UACC-257 melanoma)?
Its TGI is over 100 µM.

And the TGI (SF-539 CNS)?
The TGI was over 100 µM.

And the TGI (RXF 393 renal)?
The TGI was over 100 µM.

And the TGI (PC-3 prostate)?
Its TGI is over 100 µM.

What about the TGI (M14 melanoma) of the same molecule?
Its TGI is over 100 µM.

What about the TGI (MCF7 breast) of the same molecule?
Its TGI is over 100 µM.

What about the TGI (SN12C renal) of the same molecule?
Its TGI is over 100 µM.

What about the TGI (TK-10 renal) of the same molecule?
The TGI was over 100 µM.

And the TGI (786-0 renal)?
Its TGI is over 100 µM.

And the TGI (SW-620 colon)?
The TGI was over 100 µM.

What about the TGI (SK-MEL-28 melanoma) of the same molecule?
The TGI was over 100 µM.

And the TGI (NCI-H226 lung)?
Its TGI is over 100 µM.

What about the TGI (LOX IMVI melanoma) of the same molecule?
Its TGI is over 100 µM.

And the TGI (KM12 colon)?
The TGI was over 100 µM.

And the TGI (HT29 colon)?
Its TGI is over 100 µM.

What about the TGI (SK-MEL-5 melanoma) of the same molecule?
The TGI was over 100 µM.

And the TGI (SNB-19 CNS)?
The TGI was over 100 µM.

And the TGI (SNB-75 CNS)?
The TGI was over 100 µM.

And the TGI (SF-295 CNS)?
Its TGI is over 100 µM.

What about the TGI (HS 578T breast) of the same molecule?
Its TGI is over 100 µM.

And the TGI (COLO 205 colon)?
Its TGI is over 100 µM.

What about the TGI (HCT-116 colon) of the same molecule?
The TGI was over 100 µM.

What about the TGI (MOLT-4 leukemia) of the same molecule?
The TGI was over 100 µM.

Which results are given for `CN(C)N1C(=O)C(=O)N(c2cccc3ccccc23)C1=O`?
TGI (SR leukemia): > 10 µM; TGI (EKVX NSCLC): > 10 µM; TGI (A498 renal): > 10 µM; TGI (UO-31 renal): > 10 µM; TGI (OVCAR-8 ovarian): > 10 µM; TGI (HCT-15 colon): > 10 µM; TGI (HL-60(TB) leukemia): > 10 µM; TGI (RPMI-8226 leukemia): > 10 µM; TGI (MDA-MB-435): > 10 µM; TGI (NCI-H522 lung): > 10 µM; TGI (OVCAR-3 ovarian): > 10 µM; TGI (IGROV1 ovarian): > 10 µM; TGI (T-47D breast): > 10 µM; TGI (U251 CNS): > 10 µM; TGI (SK-MEL-2 melanoma): > 10 µM; TGI (CCRF-CEM leukemia): > 10 µM; TGI (OVCAR-4 ovarian): > 10 µM; TGI (ACHN renal): > 10 µM; TGI (HOP-62 NSCLC): > 10 µM; TGI (SF-268 CNS): > 10 µM; TGI (A549 NSCLC): > 10 µM; TGI (HCC-2998 colon): > 10 µM; TGI (UACC-62 melanoma): > 10 µM; TGI (OVCAR-5 ovarian): > 10 µM; TGI (MDA-MB-231 breast): > 10 µM; TGI (NCI-H460 lung): > 10 µM; TGI (K-562 leukemia): > 10 µM; TGI (NCI/ADR-RES ovarian): > 10 µM; TGI (NCI-H23 lung): > 10 µM; TGI (MDA-N): > 10 µM; TGI (DU-145 prostate): > 10 µM; TGI (MALME-3M melanoma): > 10 µM; TGI (SF-539 CNS): > 10 µM; TGI (SK-OV-3 ovarian): > 10 µM; TGI (RXF 393 renal): > 10 µM; TGI (PC-3 prostate): > 10 µM; TGI (M14 melanoma): > 10 µM; TGI (MCF7 breast): > 10 µM; TGI (SN12C renal): > 10 µM; TGI (TK-10 renal): > 10 µM; TGI (SW-620 colon): > 10 µM; TGI (SK-MEL-28 melanoma): > 10 µM; TGI (NCI-H226 lung): > 10 µM; TGI (CAKI-1 renal): > 10 µM; TGI (LOX IMVI melanoma): > 10 µM; TGI (KM12 colon): > 10 µM; TGI (HT29 colon): > 10 µM; TGI (SK-MEL-5 melanoma): > 10 µM; TGI (SNB-19 CNS): > 10 µM; TGI (SNB-75 CNS): > 10 µM; TGI (SF-295 CNS): > 10 µM; TGI (HS 578T breast): > 10 µM; TGI (COLO 205 colon): > 10 µM; TGI (HCT-116 colon): > 10 µM; TGI (MOLT-4 leukemia): > 10 µM
